The values that follow come from PMC7277544, “A Fluorescence-Based Method to Measure ADP/ATP Exchange of Recombinant Adenine Nucleotide Translocase in Liposomes” (Biomolecules, 2020).

The experiment concerns the target T1, adenine nucleotide translocase 1 (ANT1) (Mus musculus, UniProt P48962).
T1 construct: gene Slc25a4; recombinant murine ANT1 from E. coli inclusion bodies, reconstituted into liposomes
T1 sequence (P48962 2-298): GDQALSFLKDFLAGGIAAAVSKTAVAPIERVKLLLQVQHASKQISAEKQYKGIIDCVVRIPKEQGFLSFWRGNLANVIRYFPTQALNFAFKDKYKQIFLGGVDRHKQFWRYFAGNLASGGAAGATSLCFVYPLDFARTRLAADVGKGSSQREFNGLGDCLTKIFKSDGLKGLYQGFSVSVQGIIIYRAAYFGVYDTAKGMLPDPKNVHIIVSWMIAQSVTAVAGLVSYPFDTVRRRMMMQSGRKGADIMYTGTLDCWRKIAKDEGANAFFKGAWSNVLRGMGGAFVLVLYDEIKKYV
Description: 3H-ATP uptake into ANT1 proteoliposomes (transport rate). The experiment is classed as biochemical.

Turning to `Nc1ncnc2c1ncn2[C@@H]1O[C@H](COP(=O)(O)OP(=O)(O)OP(=O)(O)O)[C@@H](O)[C@H]1O` [ATP, adenosine triphosphate], the “3H-ATP uptake into ANT1 proteoliposomes (transport rate)” value was found to be 2.90 ± 0.47 mmol/min/g.
